Experimental data from patent publication US20250154169A1, “COMPOUNDS AND METHODS FOR MODULATING SPLICING” (REMIX THERAPEUTICS INC., priority 2021, published 2025).
Read-outs that look alike come from different tables or passages of the source.

What was measured:
Type in all cases: cell-based, human
HTT mRNA [1] = test: Splicing RT-qPCR assay, HTT canonical (CJ) and alternative (AJ) junction mRNA; details: A673 or K562 cells, 24 hours compound treatment; for IC50: read-out: HTT CJ (IC50, decrease in canonical junction mRNA); for AC50: read-out: HTT AJ (AC50, increase in alternative junction mRNA)
Summary of the method: (§1)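 Read-out is the abundance of canonical-junction versus new alternative-exon-junction mRNA, determined by real-time qPCR after cDNA synthesis and normalized to a housekeeping gene. It is measured in A673 or K562 cells exposed to compounds for 24 h, top dose 10 uM.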

MYB mRNA = test: Splicing RT-qPCR assay, MYB canonical (CJ) and alternative (AJ) junction mRNA; details: for AC50: read-out: MYB AJ (AC50, increase in alternative junction mRNA)
Summary of the method: as §1

SMN2 mRNA = test: Splicing RT-qPCR gene panel, SMN2 canonical junction (CJ) mRNA; details: Homo sapiens, Tables 4A/4B, read-out: SMN2 (IC50, decrease in CJ mRNA, gene panel)
Summary of the method: (§2)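 Cells (A673 in DMEM/10% FBS, K562 in IMDM/10% FBS) got compound for 24 h, top dose 10 uM, 11 points, 3-fold steps, DMSO ≤0.25%. Lysates went to RT-qPCR for the canonical exon-exon junction; ΔΔCt against housekeeper and DMSO gave RQ, then percentage response.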

Target C mRNA = test: Splicing RT-qPCR gene panel, Target C canonical junction (CJ) mRNA; details: Tables 4A/4B, read-out: Target C (IC50, decrease in CJ mRNA, gene panel)
Summary of the method: as §2

HTT mRNA [2] = test: Splicing RT-qPCR gene panel, HTT canonical junction (CJ) mRNA; details: Tables 4A/4B, read-out: HTT (IC50, decrease in CJ mRNA, gene panel)
Summary of the method: as §2

[3] = Homo sapiens, 24 h, A673 or K562 cells, 24 hours compound treatment, RT-qPCR
[4] = Homo sapiens, 24 h, A673 or K562 cells, 24 hours compound treatment, RT-qPCR, read-out: MYB CJ (IC50, decrease in canonical junction mRNA)
[5] = Homo sapiens, Tables 4A/4B, canonical junction qPCR panel, read-out: MYB (IC50, decrease in CJ mRNA, gene panel)

SMILES | IC50 (HTT mRNA [1]; Homo sapiens, 24 h) [nM] | AC50 (HTT mRNA [1]; Homo sapiens) [nM] | AC50 (MYB mRNA; [3]) [nM] | IC50 (MYB mRNA; [4]) [nM] | IC50 (MYB mRNA; [5]) [nM] | IC50 (SMN2 mRNA) [nM] | IC50 (Target C mRNA; Homo sapiens) [nM] | IC50 (HTT mRNA [2]; Homo sapiens) [nM] | IC50 (HTT mRNA [1]) [nM] | AC50 (MYB mRNA; A673 or K562 cells, 24 hours compound treatment, RT-qPCR) [nM] | IC50 (MYB mRNA; A673 or K562 cells, 24 hours compound treatment, RT-qPCR, read-out: MYB CJ (IC50, decrease in canonical junction mRNA)) [nM] | IC50 (MYB mRNA; Tables 4A/4B, canonical junction qPCR panel, read-out: MYB (IC50, decrease in CJ mRNA, gene panel)) [nM] | IC50 (Target C mRNA) [nM] | IC50 (HTT mRNA [2]) [nM]
COc1c(NC(=O)c2ccc(N3CCNCC3)c3oc(C)nc23)cn2cc(C)nc2c1F [Compound 428, N-{8-fluoro-7-methoxy-2-methylimidazo[1,2-a]pyridin-6-yl}-2-methyl-7-(piperazin-1-yl)-1,3-benzoxazole-4-carboxamide] | < 100 | < 100 | < 100 | < 100 | < 100 | < 100 | 100 to 1000 | < 100 |  |  |  |  |  | 
CCn1cc2c(N3CCN[C@@H](CO)C3)ccc(C(=O)Nc3cc(F)c4nc(C)cn4c3)c2n1 [Compound 429, (R)-2-ethyl-N-(8-fluoro-2-methylimidazo[1,2-a]pyridin-6-yl)-4-(3-(hydroxymethyl)piperazin-1-yl)-2H-indazole-7-carboxamide] | 1000 to 10000 | 1000 to 10000 | 100 to 1000 | 100 to 1000 | 100 to 1000 | < 100 | > 10000 | 1000 to 10000 |  |  |  |  |  | 
CCn1cc2c(N3CCN[C@H](CO)C3)ccc(C(=O)Nc3cc(F)c4nc(C)cn4c3)c2n1 [Compound 430, (S)-2-ethyl-N-(8-fluoro-2-methylimidazo[1,2-a]pyridin-6-yl)-4-(3-(hydroxymethyl)piperazin-1-yl)-2H-indazole-7-carboxamide] | 1000 to 10000 | 1000 to 10000 | < 100 | < 100 | < 100 | < 100 | > 10000 | 1000 to 10000 |  |  |  |  |  | 
CN[C@@H]1CCN(c2ccc(C(=O)Nc3cn4cc(C)nc4c(OC)n3)c3nn(CCOC)cc23)C1 [Compound 431, (R)—N-(8-methoxy-2-methylimidazo[1,2-a]pyrazin-6-yl)-2-(2-methoxyethyl)-4-(3-(methylamino)pyrrolidin-1-yl)-2H-indazole-7-carboxamide] | > 10000 | > 10000 | 100 to 1000 | 100 to 1000 | < 100 | < 100 | 1000 to 10000 | 1000 to 10000 |  |  |  |  |  | 
CN[C@H]1CCN(c2ccc(C(=O)Nc3cn4cc(C)nc4c(OC)n3)c3nn(CCOC)cc23)C1 [Compound 432, (S)—N-(8-methoxy-2-methylimidazo[1,2-a]pyrazin-6-yl)-2-(2-methoxyethyl)-4-(3-(methylamino)pyrrolidin-1-yl)-2H-indazole-7-carboxamide] | > 10000 | > 10000 | < 100 | < 100 | 100 to 1000 | < 100 | > 10000 | > 10000 |  |  |  |  |  | 
CCOc1nc(NC(=O)c2ccc(N3CC[C@H](NC)C3)c3cn(C)nc23)cn2cc(C)nc12 [Compound 434] | 1000 to 10000 | 1000 to 10000 | 1000 to 10000 | 100 to 1000 | < 100 | < 100 | > 10000 | > 10000 |  |  |  |  |  | 
Cc1cn2cc(NC(=O)c3ccc(N4CCNCC4)c4nnn(C)c34)cc(F)c2n1 [Compound 435, N-{8-fluoro-2-methylimidazo[1,2-a]pyridin-6-yl}-3-methyl-7-(piperazin-1-yl)-1,2,3-benzotriazole-4-carboxamide] | > 10000 | > 10000 | > 10000 | > 10000 | 100 to 1000 | < 100 | 1000 to 10000 | 1000 to 10000 |  |  |  |  |  | 
Cc1cn2cc(NC(=O)c3ccc(N4CCNCC4)c4c3nnn4C)cc(F)c2n1 [Compound 436, N-{8-fluoro-2-methylimidazo[1,2-a]pyridin-6-yl}-1-methyl-7-(piperazin-1-yl)-1,2,3-benzotriazole-4-carboxamide] | > 10000 | > 10000 | 100 to 1000 | 100 to 1000 | > 10000 | > 10000 | > 10000 | > 10000 |  |  |  |  |  | 
CCn1cc2c(N3CC[C@H](NC)C3)ccc(C(=O)Nc3cc(F)c4nc(C)cn4c3)c2n1 [Compound 437, (S)-2-ethyl-N-(8-fluoro-2-methylimidazo[1,2-a]pyridin-6-yl)-4-(3-(methylamino)pyrrolidin-1-yl)-2H-indazole-7-carboxamide] | 1000 to 10000 | 1000 to 10000 | < 100 | < 100 | 100 to 1000 | < 100 | > 10000 | > 10000 |  |  |  |  |  | 
CN[C@@H]1CCN(c2ccc(C(=O)Nc3cn4cc(C)nc4c(OC)n3)c3nn(C)cc23)C1 [Compound 441] | 1000 to 10000 | 1000 to 10000 | < 100 | < 100 | < 100 | < 100 | > 10000 | 1000 to 10000 |  |  |  |  |  | 
CN[C@H]1CCN(c2ccc(C(=O)Nc3cn4cc(C)nc4c(OC)n3)c3nn(C)cc23)C1 [Compound 442] | 1000 to 10000 | > 10000 | 100 to 1000 | 100 to 1000 | < 100 | < 100 | > 10000 | 1000 to 10000 |  |  |  |  |  | 
CCNC1CCN(c2ccc(C(=O)Nc3cc(F)c4nc(C)sc4c3)c3nn(C)cc23)CC1 [Compound 443, 4-[4-(ethylamino)piperidin-1-yl]-N-(4-fluoro-2-methyl-1,3-benzothiazol-6-yl)-2-methylindazole-7-carboxamide] | 1000 to 10000 | 1000 to 10000 | < 100 | < 100 | 100 to 1000 | < 100 | > 10000 | 1000 to 10000 |  |  |  |  |  | 
Cc1cn2cc(NC(=O)c3ccc(N4CCNCC4)c4cn(C)nc34)c(C#N)cc2n1 [Compound 444, N-{7-cyano-2-methylimidazo[1,2-a]pyridin-6-yl}-2-methyl-4-(piperazin-1-yl) indazole-7-carboxamide] |  | > 10000 |  |  |  | < 100 |  |  | 1000 to 10000 | 100 to 1000 | 100 to 1000 | < 100 | 1000 to 10000 | 1000 to 10000
Cc1cn2cc(NC(=O)c3ccc(N4CCNC[C@@H]4C)c4cn(C)nc34)cc(F)c2n1 [Compound 446, N-{8-fluoro-2-methylimidazo[1,2-a]pyridin-6-yl}-2-methyl-4-[(2S)-2-methylpiperazin-1-yl]indazole-7-carboxamide] | 1000 to 10000 | 1000 to 10000 | 100 to 1000 | 100 to 1000 | 100 to 1000 | < 100 | 1000 to 10000 | 1000 to 10000 |  |  |  |  |  | 
